Test results from the NIST ThermoML archive (doi:10.1021/acs.jced.7b00712).

Conditions: Liquid, Brillouin light scattering

CCCCCCCC [octane]
Conditions | speed of sound [m/s]
296.97 K, 100 kPa | 1173
297.28 K, 4000 kPa | 1196.5
297.34 K, 7000 kPa | 1222
297.35 K, 12000 kPa | 1250.8
297.38 K, 10000 kPa | 1242.7
303.33 K, 7000 kPa | 1199.7
303.38 K, 10000 kPa | 1213.7
303.42 K, 12000 kPa | 1233
303.53 K, 4000 kPa | 1172.7
303.61 K, 100 kPa | 1151.7
318.11 K, 10000 kPa | 1164.8
318.3 K, 4000 kPa | 1121.2
318.35 K, 7000 kPa | 1141.4
318.37 K, 100 kPa | 1089.5
318.37 K, 12000 kPa | 1184.5
332.26 K, 4000 kPa | 1066.7
332.32 K, 10000 kPa | 1108.6
332.33 K, 7000 kPa | 1089.1
332.5 K, 100 kPa | 1029.1
332.56 K, 12000 kPa | 1128.3
347.29 K, 7000 kPa | 1031.9
347.37 K, 10000 kPa | 1053.4
347.4 K, 4000 kPa | 1007.2
347.46 K, 12000 kPa | 1072.7
347.68 K, 100 kPa | 970.1
362.12 K, 10000 kPa | 1006.2
362.17 K, 7000 kPa | 979.6
362.28 K, 4000 kPa | 955.4
362.53 K, 100 kPa | 912.3
363.67 K, 12000 kPa | 1027.8
377.03 K, 4000 kPa | 909.7
377.33 K, 7000 kPa | 933.5
377.35 K, 10000 kPa | 960.5
377.5 K, 100 kPa | 855.4
379.75 K, 12000 kPa | 973.9
390.8 K, 4000 kPa | 860.1
391 K, 7000 kPa | 892.3
391.09 K, 10000 kPa | 917.4
391.61 K, 100 kPa | 806.4
394.67 K, 12000 kPa | 920.8
403.71 K, 12000 kPa | 896.1
407.38 K, 4000 kPa | 802.1
407.45 K, 10000 kPa | 865.2
407.46 K, 7000 kPa | 836.9
412.59 K, 4000 kPa | 786.2
412.65 K, 7000 kPa | 818.8
412.71 K, 10000 kPa | 846.7
414.33 K, 12000 kPa | 864
422.61 K, 10000 kPa | 818.2
422.69 K, 12000 kPa | 844.3
422.73 K, 4000 kPa | 747.2
422.88 K, 7000 kPa | 784.5
431.77 K, 12000 kPa | 815.2
431.82 K, 4000 kPa | 720.1
431.88 K, 7000 kPa | 754.2
431.92 K, 10000 kPa | 789.8
442.23 K, 4000 kPa | 682.1
442.49 K, 7000 kPa | 723.8
442.65 K, 10000 kPa | 755.7
442.73 K, 12000 kPa | 779.7
452.55 K, 4000 kPa | 646.4
452.64 K, 7000 kPa | 689.9
452.77 K, 10000 kPa | 728.1
452.88 K, 12000 kPa | 750.8
462.37 K, 4000 kPa | 614.7
462.45 K, 7000 kPa | 660.1
462.61 K, 12000 kPa | 724.2
465.54 K, 10000 kPa | 695.8
472.05 K, 4000 kPa | 579.7
472.15 K, 7000 kPa | 631.6
472.28 K, 10000 kPa | 676.9
472.38 K, 12000 kPa | 693.8
482.98 K, 4000 kPa | 543
483.04 K, 7000 kPa | 599.7
483.12 K, 10000 kPa | 646.1
483.14 K, 12000 kPa | 672.7
493.41 K, 4000 kPa | 503.5
493.48 K, 7000 kPa | 565.4
493.62 K, 10000 kPa | 614.7
493.73 K, 12000 kPa | 645
502.54 K, 4000 kPa | 477.8
502.73 K, 7000 kPa | 537.1
502.95 K, 10000 kPa | 590.5
503.17 K, 12000 kPa | 616.5
513 K, 4000 kPa | 439.1
513.26 K, 7000 kPa | 506.5
513.46 K, 10000 kPa | 563.1
513.67 K, 12000 kPa | 591.5
522.92 K, 4000 kPa | 407.7
523.17 K, 12000 kPa | 570.6
523.46 K, 7000 kPa | 478.6
523.6 K, 10000 kPa | 533.3
532.23 K, 4000 kPa | 373.2
532.36 K, 7000 kPa | 450.6
532.59 K, 10000 kPa | 511.4
532.79 K, 12000 kPa | 545.1
537.4 K, 4000 kPa | 354.7
537.75 K, 7000 kPa | 436.8
538.1 K, 10000 kPa | 497.5
538.41 K, 12000 kPa | 530.4
542.87 K, 4000 kPa | 337.8
543.27 K, 12000 kPa | 520.1
543.83 K, 7000 kPa | 422
544.52 K, 10000 kPa | 483.1
546.68 K, 4000 kPa | 325.7
547.82 K, 7000 kPa | 406.8
548.6 K, 10000 kPa | 471.5
549.27 K, 12000 kPa | 505.4
550.42 K, 4000 kPa | 315.2
552.01 K, 7000 kPa | 398.1
552.52 K, 10000 kPa | 465.1
552.88 K, 12000 kPa | 500.8
557.27 K, 4000 kPa | 290.5
558.19 K, 7000 kPa | 380.2
558.64 K, 10000 kPa | 448
559.37 K, 12000 kPa | 486.2
561.2 K, 4000 kPa | 276.7
561.87 K, 7000 kPa | 372.6
562.27 K, 10000 kPa | 441.3
562.71 K, 12000 kPa | 477.8
566.82 K, 7000 kPa | 356.5
566.96 K, 10000 kPa | 430.4
567.01 K, 4000 kPa | 257.3
567.1 K, 12000 kPa | 471
570.16 K, 4000 kPa | 245.6
570.2 K, 7000 kPa | 347.6
570.48 K, 10000 kPa | 424
570.75 K, 12000 kPa | 461
